Data as given in patent US20240052423A1, “METHODS OF IDENTIFYING A TUMOR THAT IS SENSITIVE TO TREATMENT WITH TALAZOPARIB AND METHODS OF TREATMENT THEREOF” (PFIZER INC., priority 2020, published 2024).

Columns and labels:
Type in all cases: in vivo, human
[1] = system: HER2-negative advanced breast cancer or other solid tumors with a mutation in homologous recombination; experiment: Phase II clinical trial of talazoparib, best response by RECIST v.1.1, combined cohorts
Description: (§1) A phase II clinical trial of the PARP inhibitor talazoparib in BRCA1 and BRCA2 wild-type patients with HER2-negative advanced breast cancer or other solid tumors with a mutation in homologous recombination was conducted as shown in FIG. 1. Eligible patients were adults (≥18 years old) with HER2-negative advanced or metastatic breast cancer that had progressed on at least 1 prior line of therapy for metastatic disease. Eligible patients also included adults (≥18 years old) with advanced or metastatic solid tumors beyond breast cancer that had progressed on at least one prior line of therapy. Patients were required to have no pathogenic mutations in either BRCA1 or BRCA2 genes on germline or somatic testing. They were required to have a pathogenic or likely pathogenic mutation in a HR-pathway associated gene detected on multiplex germline or somatic testing. These genes include: PALB2, CHEK2, ATM, NBN, BARD1, BRIP1, RAD50, RAD51C, RAD51D, MRE11, ATR, PTEN, Fanconi anemia complementation group of genes (FANCA, FANCC, FANCD2, FANCE, FANCF, FANCG, FANCL), plus other HR-related genes at the discretion of the primary investigators. Measurable disease by RECIST version 1.1 was required. There was no upper limit on the number of prior systemic therapies allowed prior to study entry. Patients were not allowed to have progressed during therapy with a platinum agent or within 8 weeks of discontinuing a platinum agent. Subjects were required to have an Eastern Cooperative Oncology Group (ECOG) performance status (PS) of 0-2 and adequate organ function based on screening laboratory values of liver, renal and hematologic parameters. The ability to take oral medications was required. Sexually active patients of childbearing potential were mandated to use contraception and females of childbearing age were tested for pregnancy at screening; females were not permitted to participate if pregnant or nursing and were tested for pregnancy at screening. Patients were excluded if they previously took any PARP inhibitor, had taken any anti-cancer therapy within 21-days of study entry, received radiation therapy within 14 days of study entry, had active brain metastasis requiring treatment or leptomeningeal disease. Patients with human immunodeficiency virus infection or active hepatitis C or hepatitis B viral infections were excluded. Also, patients requiring prolonged hospitalization, major surgery or receiving other investigational agent within 21 days prior to study entry were excluded. Additional key exclusion criteria were: other medical co-morbidity likely to interfere with study participation eg. infection grade ≥3 CTCAE version 4, or requiring parenteral antibiotics within 7 days, or known hypersensitivity to talazoparib. Talazoparib was administered at 1 mg orally daily continuously, taken whole, at approximately the same time each day. Treatment cycles lasted 28 days. Patients were evaluated on day 1 of each treatment cycle by physician assessment including medical history, physical examination, laboratory values (complete blood count (CBC) and comprehensive metabolic panel), vital signs, ECOG PS assessment and urine pregnancy test (for women of childbearing age only). Day 14 physician assessment was required for the first cycle and CBCs were required weekly for the first cycle, then prior to start of each subsequent cycle. Treatment continued until disease progressed or unacceptable toxicity. Safety was assessed at each physician visit and monitored continuously by laboratory values, patient reporting and patient diary. Adverse events (AEs) and severe AEs (SAEs) were graded according to CTCAE version 4.0. SAEs grade ≥3 were reported to the Data Safety Monitoring Committee. Tumor evaluation was performed at baseline and after every two cycles and responses were assessed according to RECIST version 1.1. After six cycles, tumor evaluations were allowed every 3 cycles per physician discretion. […]

[2] = system: HER2-negative advanced or metastatic breast cancer with a non-BRCA1/2 mutation in homologous recombination; experiment: Phase II clinical trial of talazoparib, best response by RECIST v.1.1, breast cancer cohort; settings: Breast Cancer (N = 13), 1 mg orally daily
Description: as §1

[3] = system: other solid tumors with a mutation in homologous recombination; experiment: Phase II clinical trial of talazoparib, best response by RECIST v.1.1, non-breast cancer cohort; settings: Non-Breast Cancer (N = 7), 1 mg orally daily
Description: as §1

[4] = Combined (N = 20), 1 mg orally daily, RECIST v.1.1

Structure (SMILES): Cn1ncnc1[C@H]1c2n[nH]c(=O)c3cc(F)cc(c23)N[C@@H]1c1ccc(F)cc1 [talazoparib, (8S,9R)-5-fluoro-8-(4-fluorophenyl)-9-(1-methyl-1H-1,2,4-triazol-5-yl)-8,9-dihydro-2H-pyrido[4,3,2-de]phthalazin-3(7H)-one]
- ORR (CR + PR) ([1]; Combined (N = 20), 1 mg orally daily, 95% CI: 6-44%): 4 (20%); n (%)
- CBR (CR + PR + SD ≥ 6 mos) ([1]; Combined (N = 20), 1 mg orally daily, 95% CI: 23-68%): 9 (45%); n (%)
- Complete Response (CR), response rate [1, 4]: 0 (0%) n (%)
- Partial Response (PR), response rate [1, 4]: 4 (20%) n (%)
- Progressive Disease (PD), response rate [1, 4]: 6 (30%) n (%)
- Stable Disease (SD), response rate [1, 4]: 10 (50%) n (%)
- partial responses observed in the first stage ([1]; first stage of 10 patients): two
- ORR (CR + PR) ([2]; 95% CI: 9-61%): 4 (31%); n (%)
- CBR (CR + PR + SD ≥ 6 mos) ([2]; 95% CI: 21-81%): 7 (54%); n (%)
- Complete Response (CR), response rate ([2]; RECIST v.1.1): 0 (0%) n (%)
- Partial Response (PR), response rate ([2]; RECIST v.1.1): 4 (31%) n (%)
- Progressive Disease (PD), response rate ([2]; RECIST v.1.1): 3 (23%) n (%)
- Stable Disease (SD), response rate ([2]; RECIST v.1.1): 6 (46%) n (%)
- CBR (CR + PR + SD ≥ 6 mos) [3]: 2 (29%); n (%)
- ORR (CR + PR) ([3]; 95% CI: 0-41%): 0 (0%); n (%)
- Complete Response (CR), response rate ([3]; RECIST v.1.1): 0 (0%) n (%)
- Partial Response (PR), response rate ([3]; RECIST v.1.1): 0 (0%) n (%)
- Progressive Disease (PD), response rate ([3]; RECIST v.1.1): 3 (43%) n (%)
- Stable Disease (SD), response rate ([3]; RECIST v.1.1): 4 (57%) n (%)
